This passage reports TGI results from PubChem BioAssay (NCI).

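These data come from cells grown in 96-well plates and exposed to compound for 48 hours at five concentrations. TGI: concentration producing complete growth inhibition.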

Some test systems named below: 786-0 renal; A498 renal; CCRF-CEM leukemia; HCC-2998 colon; HCT-15 colon; HS 578T breast; M14 melanoma; NCI-H460 lung; SF-539 CNS; SR leukemia.
Test in all cases: inhibition of tumour cell growth, NCI panel, 48 h

`COc1ccc2nc(NC(=O)/C(C#N)=C/c3ccccc3)sc2c1`: the TGI in the experiment on 786-0 renal is more than 100 µM; with A498 renal it was more than 100 µM; in the experiment on CCRF-CEM leukemia, 59.7 µM; in the experiment with HCC-2998 colon, more than 100 µM; with HCT-15 colon it was more than 100 µM; with HS 578T breast it was more than 100 µM. Besides, the TGI in the experiment on M14 melanoma was more than 100 µM; in the experiment with NCI-H460 lung it was more than 100 µM; with SF-539 CNS it was more than 100 µM; in the experiment on SR leukemia it was 21.9 µM.
`CCOC(=O)CSc1nc(N)c2c(-c3ccccc3)c3c(nc2n1)CCCC3`: the TGI with 786-0 renal, with A498 renal, with CCRF-CEM leukemia, in the experiment with HCC-2998 colon, in the experiment with HCT-15 colon and in the experiment on HS 578T breast was more than 100 µM in each case. Further, the TGI with M14 melanoma, with NCI-H460 lung, with SF-539 CNS and in the experiment on SR leukemia was more than 100 µM in each case.
As to `Cc1nc(N)c(N2CCN(C#N)CC2)c(=O)[nH]1`, the TGI in the experiment on 786-0 renal, with A498 renal, with CCRF-CEM leukemia, in the experiment on HCC-2998 colon, with HCT-15 colon and in the experiment on HS 578T breast was more than 100 µM throughout. For the same compound, the TGI in the experiment with M14 melanoma, in the experiment on NCI-H460 lung, in the experiment on SF-539 CNS and with SR leukemia was more than 100 µM in each case.
For `COC(=O)/C=C(/C=C1/C(C#N)=C(N)N(c2ccc(Cl)cc2)C1(C)/C(=C\C(=O)OC)C(=O)OC)C(=O)OC` (stereo not given), the TGI in the experiment on 786-0 renal is 32.7 µM; with A498 renal it was more than 100 µM; in the experiment on CCRF-CEM leukemia, more than 100 µM; with HCC-2998 colon it was 39.2 µM; in the experiment with HCT-15 colon it was 50.2 µM; in the experiment with HS 578T breast, more than 100 µM. Besides, the TGI in the experiment on M14 melanoma was 39.1 µM; in the experiment with NCI-H460 lung it was 46.3 µM; in the experiment with SF-539 CNS, 32.7 µM; in the experiment with SR leukemia, more than 100 µM.
Take `COC(=O)/C=C(\C)CC/C=C(\C)CCC1OC1(C)C` (stereo not given): the TGI was 23.6 µM in the experiment on 786-0 renal; 28.6 µM in the experiment with A498 renal; 21.3 µM in the experiment with CCRF-CEM leukemia; 22.8 µM in the experiment on HCC-2998 colon; 21.9 µM in the experiment with HCT-15 colon; 35.2 µM in the experiment on HS 578T breast. Further, the TGI in the experiment on M14 melanoma is 22.9 µM; in the experiment on NCI-H460 lung it was 24.2 µM; with SF-539 CNS, 24.1 µM; with SR leukemia, 23.4 µM.
On to `CCOC(=O)c1c(N2CCCC2)[nH]c(=O)c(C(c2ccc(OC)cc2)c2c(O)c(C(=O)OCC)c(N3CCCC3)[nH]c2=O)c1O`, for which the TGI with 786-0 renal, in the experiment on A498 renal, in the experiment on CCRF-CEM leukemia, in the experiment on HCC-2998 colon, with HCT-15 colon and in the experiment on HS 578T breast was more than 100 µM in each case. For the same compound, the TGI in the experiment on M14 melanoma, in the experiment with NCI-H460 lung, in the experiment on SF-539 CNS and in the experiment on SR leukemia was more than 100 µM in each case.
Regarding `CN(C)c1ccc(/C=C(\NC(=O)c2ccccc2)C(=O)NC(CC(=O)O)C(=O)O)cc1` (stereo not given), the TGI in the experiment on 786-0 renal, with A498 renal, in the experiment with CCRF-CEM leukemia, with HCC-2998 colon, with HCT-15 colon and in the experiment with HS 578T breast was more than 100 µM in each case. Besides, the TGI in the experiment with M14 melanoma, in the experiment with NCI-H460 lung, in the experiment with SF-539 CNS and with SR leukemia was more than 100 µM each time.
On to `COC1OC(C)C(NC(=O)OCC(Cl)(Cl)Cl)C2OC(C)(C)OC12` (stereo not given), for which the TGI in the experiment with 786-0 renal, with A498 renal, in the experiment with CCRF-CEM leukemia, in the experiment on HCC-2998 colon, in the experiment on HCT-15 colon and in the experiment on HS 578T breast was more than 100 µM throughout. The TGI with M14 melanoma, with NCI-H460 lung, with SF-539 CNS and with SR leukemia was more than 100 µM each time.
As to `c1ccc(C2=NC3OC2c2ccccc23)cc1` (stereo not given), the TGI in the experiment on 786-0 renal, in the experiment on A498 renal, in the experiment on CCRF-CEM leukemia, in the experiment with HCC-2998 colon, in the experiment with HCT-15 colon and with HS 578T breast was more than 10 µM each time. Further, the TGI with M14 melanoma, in the experiment with NCI-H460 lung, with SF-539 CNS and in the experiment with SR leukemia was more than 10 µM throughout.
As for `Cc1ccc2cccc(-c3cccc4ccccc34)c2n1`, the TGI with 786-0 renal was more than 100 µM; in the experiment with A498 renal, 46 µM; in the experiment with CCRF-CEM leukemia, 50 µM; in the experiment with HCC-2998 colon, 29.1 µM; in the experiment with HCT-15 colon it was 91.1 µM; in the experiment on HS 578T breast it was 81.9 µM. For the same compound, the TGI is 55.6 µM in the experiment with M14 melanoma, 89 µM in the experiment on NCI-H460 lung, more than 100 µM in the experiment with SF-539 CNS and 35.8 µM in the experiment with SR leukemia.
For `COc1cccc(C2c3cc4c(cc3OC(O)C2C)OCO4)c1OC` (stereo not given), the TGI with 786-0 renal is 19.2 µM; with A498 renal, 16.2 µM; with CCRF-CEM leukemia, 9.6 µM; in the experiment on HCC-2998 colon it was 46 µM; in the experiment with HCT-15 colon it was more than 100 µM; in the experiment with HS 578T breast it was 32.8 µM. Besides, the TGI with M14 melanoma amounted to 50.9 µM; in the experiment on NCI-H460 lung, 25.1 µM; in the experiment with SF-539 CNS it was 26.8 µM; in the experiment with SR leukemia, 11.3 µM.
With `Cc1c(C)n(-c2ccccc2)c2nc(S(C)=O)nc(S(C)=O)c12` (stereo not given), the TGI in the experiment on 786-0 renal was determined as 10.1 µM; in the experiment on A498 renal, 26.9 µM; with CCRF-CEM leukemia, 3.88 µM; in the experiment on HCC-2998 colon, 30.3 µM; with HCT-15 colon it was 17.8 µM; in the experiment with HS 578T breast, 70.5 µM. The TGI in the experiment with M14 melanoma was determined as 6.45 µM; in the experiment with NCI-H460 lung, 43.4 µM; with SF-539 CNS it was 14.7 µM; in the experiment with SR leukemia, 2.82 µM.
As to `CN1CSC(=S)N(c2cccc(C(F)(F)F)c2)C1`, the TGI in the experiment with 786-0 renal is 73.6 µM; in the experiment with A498 renal, 82.1 µM; with CCRF-CEM leukemia, more than 100 µM; with HCC-2998 colon, 32.9 µM; in the experiment on HCT-15 colon it was 38 µM; in the experiment with HS 578T breast it was 82.2 µM. The TGI in the experiment on M14 melanoma turned out to be 33.8 µM; in the experiment with NCI-H460 lung, 42.6 µM; with SF-539 CNS, 52 µM; in the experiment with SR leukemia, 52.5 µM.
For the compound `COC(=O)[C@]1(C)CCC[C@@]2(C)C1CC[C@]13C=C(C(C)C)[C@H](CC21)CC3(Cl)C#N` (stereo not given in full), the TGI in the experiment with 786-0 renal is more than 100 µM; with A498 renal, more than 100 µM; in the experiment with CCRF-CEM leukemia it was 60.6 µM; in the experiment on HCC-2998 colon, more than 100 µM; with HCT-15 colon it was more than 100 µM; in the experiment on HS 578T breast it was more than 100 µM. Further, the TGI in the experiment with M14 melanoma, with NCI-H460 lung, with SF-539 CNS and with SR leukemia was more than 100 µM throughout.
`Cc1ccc2c(c1C)C(=O)C1(Cc3cc4c(cc3C1=O)CCC4)C2` (stereo not given): the TGI in the experiment on 786-0 renal, in the experiment on A498 renal, in the experiment on CCRF-CEM leukemia, in the experiment with HCC-2998 colon, in the experiment on HCT-15 colon and in the experiment on HS 578T breast was more than 100 µM in each case. The TGI in the experiment on M14 melanoma, in the experiment with NCI-H460 lung, with SF-539 CNS and in the experiment on SR leukemia was more than 100 µM each time.
